The record followed here is patent US7691876B2, “Heterobicyclic amide compounds” (Hoffmann-La Roche Inc., priority 2006, dated 2010).

This assay concerns the target T1, cholesteryl ester transfer protein (CETP) (Homo sapiens, UniProt P11597).
T1 construct: the source of CETP was human lipoprotein-deprived serum (LPDS); from tissue; host or cells: human lipoprotein-deprived serum (LPDS)
T1 sequence (P11597 18-493): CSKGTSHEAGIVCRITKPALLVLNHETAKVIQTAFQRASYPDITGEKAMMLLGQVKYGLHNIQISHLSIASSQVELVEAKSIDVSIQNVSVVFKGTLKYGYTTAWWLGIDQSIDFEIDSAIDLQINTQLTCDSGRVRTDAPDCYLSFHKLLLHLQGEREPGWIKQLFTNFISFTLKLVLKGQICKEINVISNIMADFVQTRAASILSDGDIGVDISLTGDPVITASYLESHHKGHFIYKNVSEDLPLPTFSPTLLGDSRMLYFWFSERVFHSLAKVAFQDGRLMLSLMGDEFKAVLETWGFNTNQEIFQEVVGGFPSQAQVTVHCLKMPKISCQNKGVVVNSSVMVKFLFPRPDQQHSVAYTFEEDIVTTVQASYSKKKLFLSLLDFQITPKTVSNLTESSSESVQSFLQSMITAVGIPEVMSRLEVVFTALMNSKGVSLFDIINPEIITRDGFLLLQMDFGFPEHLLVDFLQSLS
Briefly: CETP activity SPA assay in the presence of plasma (human lipoprotein-deprived serum as source of CETP). Format: biochemical. As to conditions: source of CETP was human lipoprotein-deprived serum (LPDS), transfer of radiolabeled cholesteryl ester from HDL donor to biotin-labeled LDL acceptor particles. How it is done:
Activity of CETP inhibitors was determined using a buffer assay system. Partially purified CETP transferred radiolabeled cholesteryl ester from HDL donor particles to biotin-labeled LDL acceptor particles. The reaction was stopped by addition of streptavidin-coupled scintillation proximity assay (SPA) beads. These beads captured the biotinylated acceptor particles and transferred radioactivity was measured. The assay system was purchased and performed according to manufacturer's recommendations (Amersham Biosciences). Inhibitory activity of compounds was determined as percentage of positive control activity containing CETP together with donor and acceptor particles. Serial dilution of compounds was performed in order to determine the IC50 values.
Activity of the compounds was subsequently measured in the presence of plasma using the same assay as described above except that the source of CETP was human lipoprotein-deprived serum (LPDS). Inhibitory activity of compounds was determined as percentage of positive control activity containing all the assay components except compound. Serial dilution of compounds was performed in order to determine the IC50 values.
A word on the IC50: it is the concentration needed to halve the response being measured. Take `Cc1cc2cc[nH]c2c(C(=O)N(CCc2ccc(Cl)c(Cl)c2)Cc2ccc(C(C)(C)C)cc2)n1` [Compound 3.14, 5-methyl-1H-pyrrolo[2,3-c]pyridine-7-carboxylic acid (4-tert-butyl-benzyl)-[2-(3,4-dichloro-phenyl)-ethyl]-amide]: the half-inhibitory concentration (IC50) stood at 141 nM.

As to `CC(C)(C)c1ccc(CN(CCc2ccc(F)cc2)C(=O)c2ncc(F)c3cc[nH]c23)cc1` [Compound 3.15, 4-fluoro-1H-pyrrolo[2,3-c]pyridine-7-carboxylic acid (4-tert-butyl-benzyl)-[2-(4-fluoro-phenyl)-ethyl]-amide], the IC50 is 437 nM.

`CC(C)(C)c1ccc(CN(CCc2cccc(C(F)(F)F)c2)C(=O)c2nc(Cl)cc3cc[nH]c23)cc1` [Compound 3.22, 5-chloro-1H-pyrrolo[2,3-c]pyridine-7-carboxylic acid (4-tert-butyl-benzyl)-[2-(3-trifluoromethyl-phenyl)-ethyl]-amide]: the 50% inhibitory concentration (IC50) worked out at 175 nM.
